Measured values published in US20250129070A1, “BIFUNCTIONAL ANDROGEN RECEPTOR COMPOUNDS” (priority 2023, published 2025).

Legend:
Assay type in all cases: cell-based
[1] = test system: AR / CBP ternary complex; experiment: Ternary complex formation assay (sandwich ELISA, AR capture / CBP detection) in VCaP cell lysates; conditions: 1.5 hours treatment, sandwich ELISA (AR capture, CBP or p300 detection)
Method in brief: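 Anti-AR (AR 441)-coated plates capture AR from lysates of VCaP cells grown ≥3 days at 50K/well in 5% charcoal-stripped FBS, dosed with bifunctional for 1.5 h and lysed 30 min at 4 °C. Co-captured CBP/p300 is probed with rabbit mAb and HRP anti-rabbit, then QuantaRed fluorescence (570/585) is read at 0, 5 and 15 min.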

[2] = test system: HEK-293 cells; experiment: HEK-293 growth inhibition assay; conditions: 3 days, CTG
Method in brief: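 HEK-293 cells plated 24 hours before compound treatment, then exposed for 3 days at 37°C/5% CO2. Viability by CellTiter-Glo luminescence after 20 minutes at room temperature. IC50 from RLU versus concentration via 4-parameter logistic nonlinear regression.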

[3] = test system: VCaP cells; experiment: VCaP growth inhibition assay; conditions: 30 pM R1881, 9 days, CTG
Method in brief: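 Growth read by CTG luminescence after 9-day exposure to compound (final 100 nM–10 fM, 1:5 steps) plus 30 pM R1881, in phenol red-free DMEM with 5% CSS. Cells pre-incubated 72 h before dosing; IC50 by nonlinear 4-parameter regression.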

Row | Compound | EC50 [1] | IC50 [2] | IC50 [3]
1 | CC(=O)N1CCc2c(c(N3CCCc4cc(-c5cnn(C)c5)c(C(F)F)cc43)nn2C2CCN(S(=O)(=O)C3CCN(c4ncc(C(=O)NC5C(C)(C)C(Oc6ccc(C#N)c(Cl)c6)C5(C)C)cn4)CC3)CC2)C1 (stereo not drawn) [Compound 28, 2-[4-[[4-[5-acetyl-3-[7-(difluoromethyl)-6-(1-methylpyrazol-4-yl)-3,4-dihydro-2H-quinolin-1-yl]-6,7-dihydro-4H-pyrazolo[4,3-c]pyridin-1-yl]-1-piperidyl]sulfonyl]-1-piperidyl]-N-[3-(3-chloro-4-cyano-phenoxy)-2,2,4,4-tetramethyl-cyclobutyl]pyrimidine-5-carboxamide] | < 1 nM | > 10000 nM | ≤ 0.1 nM
2 | CC(=O)N1CCc2c(c(N3CCCc4cc(-c5cnn(C)c5)c(C(F)F)cc43)nn2C2CCN(C(=O)CN3CCN(c4ncc(C(=O)NC5C(C)(C)C(Oc6ccc(C#N)c(Cl)c6)C5(C)C)cn4)CC3)C2)C1 (stereo not drawn) [Compound 64, 2-[4-[2-[3-[5-acetyl-3-[7-(difluoromethyl)-6-(1-methylpyrazol-4-yl)-3,4-dihydro-2H-quinolin-1-yl]-6,7-dihydro-4H-pyrazolo[4,3-c]pyridin-1-yl]pyrrolidin-1-yl]-2-oxo-ethyl]piperazin-1-yl]-N-[3-(3-chloro-4-cyano-phenoxy)-2,2,4,4-tetramethyl-cyclobutyl]pyrimidine-5-carboxamide] | < 1 nM | > 10000 nM | 0.1 to 1 nM
3 | CC(=O)N1CCc2c(c(N3CCCc4cc(-c5cnn(C)c5)c(C(F)F)cc43)nn2C2CCN(C(=O)CC3CCN(c4ncc(C(=O)NC5C(C)(C)C(Oc6ccc(C#N)c(Cl)c6)C5(C)C)cn4)CC3)CC2)C1 (stereo not drawn) [Compound 172, 2-[4-[2-[4-[5-acetyl-3-[7-(difluoromethyl)-6-(1-methylpyrazol-4-yl)-3,4-dihydro-2H-quinolin-1-yl]-6,7-dihydro-4H-pyrazolo[4,3-c]pyridin-1-yl]-1-piperidyl]-2-oxo-ethyl]-1-piperidyl]-N-[3-(3-chloro-4-cyano-phenoxy)-2,2,4,4-tetramethyl-cyclobutyl]pyrimidine-5-carboxamide] | < 1 nM | > 10000 nM | ≤ 0.1 nM
4 | CC(=O)N1CCc2c(c(-c3cccc4cc(-c5cnc(C(=O)NCc6ncc(C(=O)NC7C(C)(C)C(Oc8ccc(C#N)c(Cl)c8)C7(C)C)cn6)nc5)ncc34)nn2C2CCOCC2)C1 (stereo not drawn) [Compound 75, 5-[8-(5-acetyl-1-tetrahydropyran-4-yl-6,7-dihydro-4H-pyrazolo[4,3-c]pyridin-3-yl)-3-isoquinolyl]-N-[[5-[[3-(3-chloro-4-cyano-phenoxy)-2,2,4,4-tetramethyl-cyclobutyl]carbamoyl]pyrimidin-2-yl]methyl]pyrimidine-2-carboxamide] | > 100 nM | > 10000 nM | 0.1 to 1 nM
5 | CC(=O)N1CCc2c(c(-c3cccc4cc(-c5ccc(OCc6ncc(C(=O)NC7C(C)(C)C(Oc8ccc(C#N)c(Cl)c8)C7(C)C)cn6)nc5)ncc34)nn2C2CCOCC2)C1 (stereo not drawn) [Compound 72, 2-[[5-[8-(5-acetyl-1-tetrahydropyran-4-yl-6,7-dihydro-4H-pyrazolo[4,3-c]pyridin-3-yl)-3-isoquinolyl]-2-pyridyl]oxymethyl]-N-[3-(3-chloro-4-cyano-phenoxy)-2,2,4,4-tetramethyl-cyclobutyl]pyrimidine-5-carboxamide] | < 1 nM | > 10000 nM | 0.1 to 1 nM
6 | CC(=O)N1CCc2c(c(N3CCCc4cc(-c5cnn(C)c5)c(C(F)F)cc43)nn2C2CCN(CC3CCN(c4ncc(C(=O)NC5C(C)(C)C(Oc6ccc(C#N)c(Cl)c6)C5(C)C)cn4)CC3)CC2)C1 (stereo not drawn) [Compound 84, 2-[4-[[4-[5-acetyl-3-[7-(difluoromethyl)-6-(1-methylpyrazol-4-yl)-3,4-dihydro-2H-quinolin-1-yl]-6,7-dihydro-4H-pyrazolo[4,3-c]pyridin-1-yl]-1-piperidyl]methyl]-1-piperidyl]-N-[3-(3-chloro-4-cyano-phenoxy)-2,2,4,4-tetramethyl-cyclobutyl]pyrimidine-5-carboxamide] | < 1 nM | > 10000 nM | ≤ 0.1 nM
7 | CNC(=O)N1CCc2c(c(N3CCCc4cc(-c5cnn(C)c5)c(C(F)F)cc43)nn2C2CCN(C(=O)CC3CCN(c4ncc(C(=O)NC5C(C)(C)C(Oc6ccc(C#N)c(Cl)c6)C5(C)C)cn4)CC3)CC2)C1 (stereo not drawn) [Compound 101, 1-[1-[2-[1-[5-[[3-(3-chloro-4-cyano-phenoxy)-2,2,4,4-tetramethyl-cyclobutyl]carbamoyl]pyrimidin-2-yl]-4-piperidyl]acetyl]-4-piperidyl]-3-[7-(difluoromethyl)-6-(1-methylpyrazol-4-yl)-3,4-dihydro-2H-quinolin-1-yl]-N-methyl-6,7-dihydro-4H-pyrazolo[4,3-c]pyridine-5-carboxamide] | < 1 nM | > 10000 nM | ≤ 0.1 nM
8 | CNC(=O)N1CCc2c(c(N3CCCc4cc(-c5cnn(C)c5)c(C(F)F)cc43)nn2C2CCN(C(=O)COCCN3CCN(c4ncc(C(=O)NC5C(C)(C)C(Oc6ccc(C#N)c(Cl)c6)C5(C)C)cn4)CC3)CC2)C1 (stereo not drawn) [Compound 106, 1-[1-[2-[2-[4-[5-[[3-(3-chloro-4-cyano-phenoxy)-2,2,4,4-tetramethyl-cyclobutyl]carbamoyl]pyrimidin-2-yl]piperazin-1-yl]ethoxy]acetyl]-4-piperidyl]-3-[7-(difluoromethyl)-6-(1-methylpyrazol-4-yl)-3,4-dihydro-2H-quinolin-1-yl]-N-methyl-6,7-dihydro-4H-pyrazolo[4,3-c]pyridine-5-carboxamide] | < 1 nM | > 10000 nM | ≤ 0.1 nM
9 | CNC(=O)N1CCc2c(c(N3CCCc4cc(-c5cnn(C)c5)c(C(F)F)cc43)nn2C2CCN(C(=O)COCCOC3CCN(c4ncc(C(=O)NC5C(C)(C)C(Oc6ccc(C#N)c(Cl)c6)C5(C)C)cn4)CC3)CC2)C1 (stereo not drawn) [Compound 98, 1-[1-[2-[2-[[1-[5-[[3-(3-chloro-4-cyano-phenoxy)-2,2,4,4-tetramethyl-cyclobutyl]carbamoyl]pyrimidin-2-yl]-4-piperidyl]oxy]ethoxy]acetyl]-4-piperidyl]-3-[7-(difluoromethyl)-6-(1-methylpyrazol-4-yl)-3,4-dihydro-2H-quinolin-1-yl]-N-methyl-6,7-dihydro-4H-pyrazolo[4,3-c]pyridine-5-carboxamide] | < 1 nM | > 10000 nM | ≤ 0.1 nM
10 | CNC(=O)N1CCc2c(c(N3CCCc4cc(-c5cnn(C)c5)c(C(F)F)cc43)nn2C2CCN(CCOc3ncc(C(=O)NC4C(C)(C)C(Oc5ccc(C#N)c(Cl)c5)C4(C)C)cn3)CC2)C1 (stereo not drawn) [Compound 87, 1-[1-[2-[5-[[3-(3-chloro-4-cyano-phenoxy)-2,2,4,4-tetramethyl-cyclobutyl]carbamoyl]pyrimidin-2-yl]oxyethyl]-4-piperidyl]-3-[7-(difluoromethyl)-6-(1-methylpyrazol-4-yl)-3,4-dihydro-2H-quinolin-1-yl]-N-methyl-6,7-dihydro-4H-pyrazolo[4,3-c]pyridine-5-carboxamide] | < 1 nM | > 10000 nM | 0.1 to 1 nM
11 | COc1cc(OC2C(C)(C)C(NC(=O)c3ccc(N4CC5(CCC(N6CCC(n7nc(N8CCCc9cc(-c%10cnn(C)c%10)c(C(F)F)cc98)c8c7CCN(C(C)=O)C8)CC6)CC5)C4)cc3)C2(C)C)ccc1C#N (stereo not drawn) [Compound 273, 4-[7-[4-[5-acetyl-3-[7-(difluoromethyl)-6-(1-methylpyrazol-4-yl)-3,4-dihydro-2H-quinolin-1-yl]-6,7-dihydro-4H-pyrazolo[4,3-c]pyridin-1-yl]-1-piperidyl]-2-azaspiro[3.5]nonan-2-yl]-N-[3-(4-cyano-3-methoxy-phenoxy)-2,2,4,4-tetramethyl-cyclobutyl]benzamide] | < 1 nM | > 1000 nM | ≤ 0.1 nM
12 | CNC(=O)N1CCc2c(c(N3CCCc4cc(-c5cnn(C)c5)c(C(F)F)cc43)nn2C2CCN(C(=O)COC3CCN(c4ncc(C(=O)NC5C(C)(C)C(Oc6ccc(C#N)c(Cl)c6)C5(C)C)cn4)CC3)CC2)C1 (stereo not drawn) [Compound 100, 1-[1-[2-[[1-[5-[[3-(3-chloro-4-cyano-phenoxy)-2,2,4,4-tetramethyl-cyclobutyl]carbamoyl]pyrimidin-2-yl]-4-piperidyl]oxy]acetyl]-4-piperidyl]-3-[7-(difluoromethyl)-6-(1-methylpyrazol-4-yl)-3,4-dihydro-2H-quinolin-1-yl]-N-methyl-6,7-dihydro-4H-pyrazolo[4,3-c]pyridine-5-carboxamide] | < 1 nM | > 10000 nM | ≤ 0.1 nM
13 | CC(=O)N1CCc2c(c(Nc3ccc(-c4cnn(C)c4)cc3F)nn2C2CCN(C(=O)CN3CCN(c4ncc(C(=O)NC5C(C)(C)C(Oc6ccc(C#N)c(Cl)c6)C5(C)C)cn4)CC3)CC2)C1 (stereo not drawn) [Compound 66, 2-[4-[2-[4-[5-acetyl-3-[2-fluoro-4-(1-methylpyrazol-4-yl)anilino]-6,7-dihydro-4H-pyrazolo[4,3-c]pyridin-1-yl]-1-piperidyl]-2-oxo-ethyl]piperazin-1-yl]-N-[3-(3-chloro-4-cyano-phenoxy)-2,2,4,4-tetramethyl-cyclobutyl]pyrimidine-5-carboxamide] | < 1 nM | > 10000 nM | 0.1 to 1 nM
